Test [1] addresses phosphorylated ERBB2 (pERBB2) (Homo sapiens (Human), UniProt P04626). The test is described as follows: Detection of phosphorylated ERBB2 (pERBB2) by ELISA in BT-474 cells. The note with it: four hours incubation with compound. The format is cell-based. The method, then:
BT-474 cells were seeded into a 96-well at 2.0*10^4cells/100 μl/well. Compounds were dissolved and serially diluted in DMSO. The compounds were then were added, mixed, and incubated for four hours at 37° C., 5% CO2. […] Following the four hour incubation with compounds, cell lysates were prepared. Plates were centrifuged for 5 min at 3000 RPM, and supernatant was removed from each well. Cells were washed 3 times by resuspension in 150 μl PBS, followed by centrifugation and removal of the supernatant, as above. 100 μl of cell lysis buffer (Boston BioProducts, cat #BP-115D) supplied with 1×complete ULTRA cocktail inhibitor (Thermo ScientificTM, cat #78443) was then added to the washed cells. Cells were incubated with lysis buffer for 1 hour at 4° C., and then stored at -80° C. Enzyme-linked immunosorbent assays (ELISA) were performed to measure phosphorylated ERBB2 levels. […] The next day, plates were washed with PBS+0.05% Tween20 (PBST). 150 μl of 5% BSA blocking solution was added for 1 hour at room temperature, with shaking. Plates were washed with PBST. Cell lysates were thawed and 100 μl of lysate was added to the ELISA plate. The plates were incubated for 2 hours at room temperature, with shaking. ELISA plates were then washed with PBST and 100 μl of an HRP-labeled detection antibody that binds phosphorylated tyrosine (R&D Systems, cat #841913) was added to each well. Plates were incubated for 1 hour at room temperature, with shaking. Plates were then washed with PBST, and 100 μl TMB substrate solution (R&D Systems, cat #DY999) was added. Plate were incubated in the dark for 20 minutes at room temperature. 50 μl of Stop solution (R&D Systems, cat #DY994) (50 μl) was added to each well and mixed. […] The remaining kinase activity by calculated using the following formula: % Relative activity=100×([…]). The low and high control values (“LC” and “HC”) were generated from lysate from wells without cells or with cells treated with 0.1% DMSO, respectively.
On the technique in general: In an ELISA, binding on a coated surface is turned into a signal by an enzyme label.

For test [2], the target named is phosphorylated EGFR (pEGFR) (Homo sapiens (Human), UniProt P00533). The test is described as follows: Detection of phosphorylated EGFR (pEGFR) by AlphaLISA in A431 cells. The test is classed as cell-based. The note with it: A431 cells (10% FBS), 4 hours incubation, EGF 30 ng/mL for 10 minutes. As to the method: […] were performed to measure phosphorylated EGFR levels using A431 cells (10% FBS). A431 (1.0*10^4cells/40 μl/well) cells were seeded in 384 well. Compounds were dissolved in DMSO, serially diluted in DMSO and then were added, mixed, and incubated for 4 hours at 37° C., […]. Following the 4-hours incubation, cells were stimulated for 10 minutes with EGF (Invitrogen, cat #PHG0311) at a final concentration of 30 ng/mL in the incubator. The media was aspirated and cells were lysed in 10 μL lysis buffer with protease and phosphatase inhibitors (PerkinElmer, cat #ALSU-PEGFR-A50K). The plates were placed on a shaker for 5 minutes and then incubated for 30 min at 4° C. for complete lysis. The lysate was transferred to an Optiplate (Perkin Elmer, cat #6007290).
phosphorylated EGFR (pEGFR), sequence (P00533 25-1210): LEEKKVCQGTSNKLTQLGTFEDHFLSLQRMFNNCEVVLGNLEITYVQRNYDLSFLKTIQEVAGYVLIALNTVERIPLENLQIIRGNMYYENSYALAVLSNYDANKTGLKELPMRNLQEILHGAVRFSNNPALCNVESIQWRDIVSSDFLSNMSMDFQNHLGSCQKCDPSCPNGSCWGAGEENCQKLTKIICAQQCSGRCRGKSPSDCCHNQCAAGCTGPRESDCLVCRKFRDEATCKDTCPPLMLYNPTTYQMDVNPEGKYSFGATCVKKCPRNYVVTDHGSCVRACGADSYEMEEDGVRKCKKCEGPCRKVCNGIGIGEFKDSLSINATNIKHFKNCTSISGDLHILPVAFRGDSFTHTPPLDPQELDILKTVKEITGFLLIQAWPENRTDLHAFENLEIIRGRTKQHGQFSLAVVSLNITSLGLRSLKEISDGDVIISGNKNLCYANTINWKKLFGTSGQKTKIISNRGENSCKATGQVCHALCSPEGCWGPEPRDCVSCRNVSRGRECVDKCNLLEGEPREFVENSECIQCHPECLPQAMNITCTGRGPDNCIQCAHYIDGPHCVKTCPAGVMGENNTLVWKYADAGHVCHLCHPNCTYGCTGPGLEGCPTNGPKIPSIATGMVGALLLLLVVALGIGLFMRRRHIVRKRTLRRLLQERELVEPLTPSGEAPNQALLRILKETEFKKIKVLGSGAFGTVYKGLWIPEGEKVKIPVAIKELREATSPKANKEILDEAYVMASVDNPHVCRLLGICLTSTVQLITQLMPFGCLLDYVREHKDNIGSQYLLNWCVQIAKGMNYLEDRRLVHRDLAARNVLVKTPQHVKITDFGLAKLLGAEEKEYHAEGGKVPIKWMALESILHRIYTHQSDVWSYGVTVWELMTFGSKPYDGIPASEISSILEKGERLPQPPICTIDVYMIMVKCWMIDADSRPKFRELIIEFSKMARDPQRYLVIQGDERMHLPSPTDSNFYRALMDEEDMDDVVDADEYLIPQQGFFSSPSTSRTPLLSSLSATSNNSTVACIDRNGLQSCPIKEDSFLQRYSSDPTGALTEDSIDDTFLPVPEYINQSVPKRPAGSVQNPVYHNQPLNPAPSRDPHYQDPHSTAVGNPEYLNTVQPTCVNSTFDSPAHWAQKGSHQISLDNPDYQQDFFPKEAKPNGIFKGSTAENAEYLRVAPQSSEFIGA
Acceptor mix (PerkinElmer, cat #ALSU-PEGFR-A50K) was prepared just before use and 5 μL was dispensed to all the wells, followed by a 1.5-2 h incubation at room temperature in dark. The donor mix (PerkinElmer, cat #ALSU-PEGFR-A50K) was prepared under low light conditions prior to use and 5 μl of donor mix was added to all the wells under subdued lighting or green filters. The plates were placed on a shaker for 5 min, sealed, and incubated overnight at room temperature in dark. Plates were read on the Envision (PerkinElmer) using standard AlphaLISA settings.
The percentage of inhibition on EGFR phosphorylation was calculated following equation: % Inhibition=100×(LumHC−LumSample)/(LumHC−LumLC). The low and high controls (LC/HC) are generated from lysate from wells with cells treated with DMSO or […] Staurosporine (BioAustralis, cat #BIA-S1086), […]. IC50 values were calculated by fitting the Curve using XLfit (v5.3.1.3), equation 201: Y=Bottom+(Top−Bottom)/(1+10^((LogIC50−X)*HillSlope)).
(In general: In Alpha technology, singlet oxygen from a donor bead excites a nearby acceptor bead.)

Where only a bound is given, the exact number is not on record here.

phosphorylated ERBB2 (pERBB2), sequence (P04626 23-1255): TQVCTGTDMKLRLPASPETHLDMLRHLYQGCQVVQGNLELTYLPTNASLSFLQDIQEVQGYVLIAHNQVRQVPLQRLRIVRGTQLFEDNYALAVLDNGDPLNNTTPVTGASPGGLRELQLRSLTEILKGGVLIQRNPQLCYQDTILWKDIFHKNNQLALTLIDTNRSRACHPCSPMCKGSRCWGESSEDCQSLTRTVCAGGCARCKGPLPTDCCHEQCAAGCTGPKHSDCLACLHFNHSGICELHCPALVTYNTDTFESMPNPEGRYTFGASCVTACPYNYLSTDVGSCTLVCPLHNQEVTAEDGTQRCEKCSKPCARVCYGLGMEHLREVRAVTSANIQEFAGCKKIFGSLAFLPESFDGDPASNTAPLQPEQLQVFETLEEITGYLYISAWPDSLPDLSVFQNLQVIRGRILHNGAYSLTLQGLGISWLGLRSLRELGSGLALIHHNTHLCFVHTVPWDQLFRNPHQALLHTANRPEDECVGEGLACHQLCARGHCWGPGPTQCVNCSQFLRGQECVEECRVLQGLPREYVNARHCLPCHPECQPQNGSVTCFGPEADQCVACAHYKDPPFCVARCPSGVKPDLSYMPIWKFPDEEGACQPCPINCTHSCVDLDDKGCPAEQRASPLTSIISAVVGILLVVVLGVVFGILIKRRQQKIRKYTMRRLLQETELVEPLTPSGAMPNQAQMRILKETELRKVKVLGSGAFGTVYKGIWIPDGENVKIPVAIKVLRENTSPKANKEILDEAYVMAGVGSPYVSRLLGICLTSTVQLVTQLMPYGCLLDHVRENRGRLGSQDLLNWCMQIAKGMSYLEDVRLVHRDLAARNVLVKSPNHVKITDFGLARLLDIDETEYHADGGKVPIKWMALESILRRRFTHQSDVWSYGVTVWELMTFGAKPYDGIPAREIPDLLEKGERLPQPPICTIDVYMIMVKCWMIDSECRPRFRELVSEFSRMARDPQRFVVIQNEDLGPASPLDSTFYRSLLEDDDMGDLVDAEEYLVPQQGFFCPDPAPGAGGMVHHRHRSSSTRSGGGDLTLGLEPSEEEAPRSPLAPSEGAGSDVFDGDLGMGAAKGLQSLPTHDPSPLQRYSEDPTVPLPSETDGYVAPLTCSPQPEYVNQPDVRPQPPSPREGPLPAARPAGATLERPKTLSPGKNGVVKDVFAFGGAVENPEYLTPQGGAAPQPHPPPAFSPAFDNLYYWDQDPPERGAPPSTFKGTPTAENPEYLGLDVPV

`Cc1cc(Nc2ncnc3cc4c(c(F)c23)N2CCN(C(=O)/C=C/CN(C)C)C(CO4)C2)ccc1Oc1ccn2ncnc2c1` (stereo in doubt) [Compound 40, (E)-1-((10S)-4-((4-([1,2,4]triazolo[1,5-a]pyridin-7-yloxy)-3-methylphenyl)amino)-5-fluoro-7,8,10,11-tetrahydro-9H-6,10-methano[1,4,7]oxadiazonino[3,2-g]quinazolin-9-yl)-4-(dimethylamino)but-2-en-1-one]: the half-maximal inhibitory concentration (IC50) (in general, the point on the concentration scale where inhibition reaches its midpoint) in test [1] was 18.5 nM; in test [2] it was above 10000 nM.

As for `Cc1cc(Nc2ncnc3cc4c(cc23)N2CCN(C(=O)/C=C/CN(C)C)C(CO4)C2)ccc1Oc1ccn2ncnc2c1` (stereo in doubt) [Compound 9, (E)-1-((10S)-4-((4-([1,2,4]triazolo[1,5-a]pyridin-7-yloxy)-3-methylphenyl)amino)-7,8,10,11-tetrahydro-9H-6,10-methano[1,4,7]oxadiazonino[3,2-g]quinazolin-9-yl)-4-(dimethylamino)but-2-en-1-one], the IC50 in test [1] is 18.9 nM; in test [2], above 10000 nM.

In the case of `[2H]C([2H])([2H])N(C([2H])([2H])[2H])C([2H])([2H])/C=C/C(=O)N1CCN2CC1COc1cc3ncnc(Nc4cc(C)c(Oc5ccn6ncnc6c5)cc4F)c3nc12` (stereo in doubt) [Compound 59, (E)-1-((10S)-4-((4-([1,2,4]triazolo[1,5-a]pyridin-7-yloxy)-2-fluoro-5-methylphenyl)amino)-7,8,10,11-tetrahydro-9H-6,10-methanopyrimido[4′,5′:5,6]pyrido[3,2-b][1,4,7]oxadiazonin-9-yl)-4-(bis(methyl-d3)amino)but-2-en-1-one-4,4-d2], the IC50 in test [1] was 9 nM; in test [2] it was 1380 nM.

On to `CN(C)C/C=C/C(=O)N1CCN2C[C@H]1COc1cc3ncnc(Nc4cc(F)c(Oc5ccn6ncnc6c5)cc4F)c3nc12` [Compound 48, (E)-1-((10S)-4-((4-([1,2,4]triazolo[1,5-a]pyridin-7-yloxy)-2,5-difluorophenyl)amino)-7,8,10,11-tetrahydro-9H-6,10-methanopyrimido[4′,5′:5,6]pyrido[3,2-b][1,4,7]oxadiazonin-9-yl)-4-(dimethylamino)but-2-en-1-one], for which the IC50 amounted to 10.8 nM in test [1] and 3300 nM in test [2].

With `CN(C)C/C=C/C(=O)N1CCN2CC1COc1cc3ncnc(Nc4ccc(Oc5ccn6ncnc6c5)cc4F)c3nc12` (stereo in doubt) [Compound 42, (E)-1-((10S)-4-((4-([1,2,4]triazolo[1,5-a]pyridin-7-yloxy)-2-fluorophenyl)amino)-7,8,10,11-tetrahydro-9H-6,10-methanopyrimido[4′,5′:5,6]pyrido[3,2-b][1,4,7]oxadiazonin-9-yl)-4-(dimethylamino)but-2-en-1-one], the results for the IC50 in test [1] and in test [2] were 10.8 nM and 1940 nM, respectively.

Consider `Cc1cc(Nc2ncnc3cc4c(nc23)N2CCN(C(=O)/C=C/CN(C)C)C(CO4)C2)ccc1Oc1cccnc1` (stereo in doubt) [Compound 25, (E)-4-(dimethylamino)-1-((10S)-4-((3-methyl-4-(pyridin-3-yloxy)phenyl)amino)-7,8,10,11-tetrahydro-9H-6,10-methanopyrimido[4′,5′:5,6]pyrido[3,2-b][1,4,7]oxadiazonin-9-yl)but-2-en-1-one], for which the IC50 in test [1] came out at 5.54 nM; in test [2], 338 nM.

For `Cc1cc(Nc2ncnc3cc4c(nc23)N2CCN(C(=O)/C=C/CN(C)C)C(CO4)C2)c(F)cc1Oc1ccn2ncnc2c1` (stereo in doubt) [Compound 24, (E)-1-((10S)-4-((4-([1,2,4]triazolo[1,5-a]pyridin-7-yloxy)-2-fluoro-5-methylphenyl)amino)-7,8,10,11-tetrahydro-9H-6,10-methanopyrimido[4′,5′:5,6]pyrido[3,2-b][1,4,7]oxadiazonin-9-yl)-4-(dimethylamino)but-2-en-1-one], the IC50 in test [1] is 8.38 nM; in test [2] it was 2160 nM.

On to `CC#CC(=O)N1CCN2CC1COc1cc3ncnc(Nc4ccc(Oc5ccc6c(c5)ncn6C)c(C)c4)c3nc12` (stereo in doubt) [Compound 16, 1-((10S)-4-((3-methyl-4-((1-methyl-1H-benzo[d]imidazol-5-yl)oxy)phenyl)amino)-7,8,10,11-tetrahydro-9H-6,10-methanopyrimido[4′,5′:5,6]pyrido[3,2-b][1,4,7]oxadiazonin-9-yl)but-2-yn-1-one], for which the IC50 in test [1] is 242 nM; in test [2] it was above 10000 nM.

For `CC#CC(=O)N1CCN2CC1COc1cc3ncnc(Nc4ccc(Oc5ccn6ncnc6c5)c(C)c4)c3nc12` (stereo in doubt) [Compound 18, 1-((10S)-4-((4-([1,2,4]triazolo[1,5-a]pyridin-7-yloxy)-3-methylphenyl)amino)-7,8,10,11-tetrahydro-9H-6,10-methanopyrimido[4′,5′:5,6]pyrido[3,2-b][1,4,7]oxadiazonin-9-yl)but-2-yn-1-one], the IC50 in test [1] was 62.8 nM; in test [2], 4430 nM.

On to `Cc1cc(Nc2ncnc3cc4c(nc23)N2CCN(C(=O)/C=C/CN(C)C)CC(CO4)C2)ccc1Oc1ccn2ncnc2c1` (centres unmarked) [Compound 57, (E)-1-(4-((4-([1,2,4]triazolo[1,5-a]pyridin-7-yloxy)-3-methylphenyl)amino)-7,8,11,12-tetrahydro-6,11-methanopyrimido[4,5′:5,6]pyrido[3,2-b][1,4,7]oxadiazecin-9 (10H)-yl)-4-(dimethylamino)but-2-en-1-one], for which the IC50 was 32.8 nM in test [1] and above 10000 nM in test [2].

`Cc1c(Oc2ccn3ncnc3c2)ccc(Nc2ncnc3cc4c(nc23)N2CCN(C(=O)/C=C/CN(C)C)C(CO4)C2)c1F` (stereo in doubt) [Compound 35, (E)-1-((10S)-4-((4-([1,2,4]triazolo[1,5-a]pyridin-7-yloxy)-2-fluoro-3-methylphenyl)amino)-7,8,10,11-tetrahydro-9H-6,10-methanopyrimido[4′,5′:5,6]pyrido[3,2-b][1,4,7]oxadiazonin-9-yl)-4-(dimethylamino)but-2-en-1-one]: the IC50 was determined as 5.48 nM in test [1] and 309 nM in test [2].

On to `Cc1cc(Nc2ncnc3cc4c(nc23)N2CCN(C(=O)/C=C/[C@@H](C)N(C)C)C(CO4)C2)c(F)cc1Oc1ccn2ncnc2c1` (stereo in doubt) [Compound 50, (4R,E)-1-((10S)-4-((4-([1,2,4]triazolo[1,5-a]pyridin-7-yloxy)-2-fluoro-5-methylphenyl)amino)-7,8,10,11-tetrahydro-9H-6,10-methanopyrimido[4′,5′:5,6]pyrido[3,2-b][1,4,7]oxadiazonin-9-yl)-4-(dimethylamino)pent-2-en-1-one], for which the results for the IC50 in test [1] and in test [2] were 72.4 nM and above 10000 nM, respectively.

As to `C=CC(=O)N1CCN2C[C@@H]1COc1cc3ncnc(Nc4ccc(Cc5ccn6ncnc6c5)c(C)c4)c3nc12` [Compound 19, 1-((10R)-4-((4-([1,2,4]triazolo[1,5-a]pyridin-7-ylmethyl)-3-methylphenyl)amino)-7,8,10,11-tetrahydro-9H-6,10-methanopyrimido[4′,5′:5,6]pyrido[3,2-b][1,4,7]oxadiazonin-9-yl)prop-2-en-1-one], the IC50 in test [1] turned out to be 1930 nM.

For `Cc1cc(Nc2ncnc3ccc(NC4=NC(C)(C)CO4)cc23)ccc1Oc1ccn2ncnc2c1` [Tucatinib, tucatinib, reference compound], the IC50 in test [1] stood at 12 nM.

These data come from patent US20230382923A1, “FUSED TETRACYCLIC QUINAZOLINE DERIVATIVES AS INHIBITORS OF ERBB2” (EnLiven Therapeutics, Inc., priority 2021, published 2023).
